Reference: patent US8198279B2, “Pyrido[2,3-b]pyrazin-8-substituted compounds and their use” (Institute of Cancer Research: Royal Cancer Hospital (The), priority 2007, dated 2012)
“And” between values parts separate entries of the source, which are not always exact repeats. Equal entries are not always repeated.

Legend:
B-RAF = biological target: T1, B-RAF (Homo sapiens, UniProt P15056, V600E); test: DELFIA Kinase Assay; assay type: biochemical; conditions: 100 μM ATP, GST-MEK substrate
T1 construct: made in house
Description: Biological Methods—DELFIA Kinase Assay
Compounds were assessed by a kinase assay performed according to the following protocol.
DKB1 (DKB with B-RAF and MEK Protein):
Combine 4950 μL of DKB and 50 μL of 2.5 mg/ml GST-MEK stock (to give […] of MEK per 40 μL). Then add 22.5 μL of B-RAF to give ˜0.2 μL of B-RAF per 40 μL.
100 mM stock, dilute to 500 μM to give 100 μM final concentration in assay.
• 1. Preblock wells with 5% milk in TBS for 1 hour. • 2. Wash wells with 3× with 200 μL TBS. • 3. Plate out 40 μL of DKB1 for all inhibitors (test compounds), DMSO control, and optionally other control compounds. • 4. Plate out 40 μL of DKB2 for BO and EV wells. • 5. Add inhibitors (test compounds) at 0.5 μL per well according to desired plate layout. • 6. Add 0.5 μL DMSO to vehicle control wells. • 7. Add 2 μL of B-RAF to BO and EV wells. • 8. Pre-incubate with inhibitors (test compounds) for 10 minutes at room temperature with shaking. • 9. Add 10 μL of 500 μM ATP stock, in DKB, to give 100 μM assay concentration. • 10. Seal plates with TopSeal and incubate at room temperature with shaking for 45 minutes. • 11. Wash plates 3× with 200 μL 0.1% Tween20/Water to terminate reaction. • 12. Add 50 μL per well of antibody mix and incubate for 1 hour at room temperature with shaking. • 13. Wash plates 3× with 200 μL 0.1% Tween20/Water. • 14. Add 100 μL DELFIA enhancement solution per well, cover in foil, and incubate at room temperature for 30 minutes with shaking. • 15. Read on Victor using Europium protocol.
Values for the blank (Empty Vector) are subtracted from all values. The DMSO controls are set as 100% activity and assay points (the response) are calculated as a percentage of the DMSO control. Data are plotted using Graphpad Prism software and a non-linear regression line is calculated using a variable slope sigmoidal dose-response equation (Y=Bottom+(Top−Bottom)/(1+10^((LogEC50−X)*HillSlope)) where X is the logarithm of concentration. Y is the response). The IC50 generated by this procedure is the concentration of the drug that produces a percentage control fluorescence value midway between the saturation, and zero-effect plateaus. Three independent assays are usually performed and the mean IC50 is reported.

WM266.4 melanoma cells = test: SRB Cell Proliferation Assay (SRB GI50); assay type: cell-based; conditions: Homo sapiens, WM 266-4, 144 h, 6 days growth
Description: Biological Methods —SRB Cell Proliferation Assay (SRB GI50)
Cultures of WM266.4 melanoma cells are routinely cultured in DMEM/10% foetal bovine serum, at 37° C., in 5% CO2 water saturated atmosphere. Cultures are maintained in exponential growth phase by sub-culturing before having become confluent (3-5 day intervals). Single cell suspensions are prepared by harvesting an 80 cm^2 tissue culture flask with 5 mL commercial trypsin EDTA. After 5 minutes, the detached cells are mixed with 5 mL fully complemented culture medium and centrifugally pelleted (1000 rpm for 7 minutes). After aspirating the supernatant, the cell pellet is re-suspended in 10 mL fresh medium and the cells fully disaggregated by drawing the whole volume up/down 5 times through a 19-gauge needle. The concentration of the cells is determined using a haemocytometer (1/10 dilution). A suitable volume to give at least a 2-fold excess for the number of tests being conducted, typically 100-200 mL, is prepared by diluting the cell suspension to 10,000/mL, and 100 μL/well dispensed into 96 well plates using a programmable 8-channel peristaltic pump, giving 1000 cells/well, leaving column 12 blank. The plates are returned to the incubator for 24 hours to allow the cells to re-attach.
The compounds being tested are prepared at 20 mM in dimethylsulphoxide. Aliquots (200 μL) are diluted into 20 mL culture medium giving 200 μM, and 10 serial dilutions of 3× performed by transferring 5 mL to 10 mL. Aliquots (100 μL) of each dilution are added to the wells, using an 8-channel pipettor, thus performing a final further 2× dilution, and giving doses ranging from 100 μM to 0.005 μM. Column 11 receives plain culture medium only. Each compound is tested in quadruplicate, each replicate being the average of four wells, and two plates per compound.
After a further 6 days growth, the plates are emptied, and the cells are fixed in 10% trichloroacteic acid for 10 minutes on ice. After thorough rinsing in running tap water, the plates are dried, and stained by adding 50 μL of a solution of 0.1% sulphorhodamine-B in 1% acetic acid, for 10 minutes at room temperature. The stain is poured out and the plates thoroughly rinsed under a stream of 1% acetic acid, thus removing unbound stain, and dried. The bound stain is taken into solution by addition of 150 μL Tris buffer pH 8, followed by 10 minutes on a plate-shaker (approximately 500 rpm). The absorbance at 540 nm in each well (being proportional to the number of cells present) is determined using a plate reader.
After averaging the results in rows A-D and E-H, the blank value (row 12) is subtracted, and results expressed as percentage of the untreated value (row 11). […] The GI50 generated by this procedure is the concentration of the drug that produces a percentage control A540 midway between the saturation, and zero-effect plateaus.

T1 sequence (P15056 whole entry V600E): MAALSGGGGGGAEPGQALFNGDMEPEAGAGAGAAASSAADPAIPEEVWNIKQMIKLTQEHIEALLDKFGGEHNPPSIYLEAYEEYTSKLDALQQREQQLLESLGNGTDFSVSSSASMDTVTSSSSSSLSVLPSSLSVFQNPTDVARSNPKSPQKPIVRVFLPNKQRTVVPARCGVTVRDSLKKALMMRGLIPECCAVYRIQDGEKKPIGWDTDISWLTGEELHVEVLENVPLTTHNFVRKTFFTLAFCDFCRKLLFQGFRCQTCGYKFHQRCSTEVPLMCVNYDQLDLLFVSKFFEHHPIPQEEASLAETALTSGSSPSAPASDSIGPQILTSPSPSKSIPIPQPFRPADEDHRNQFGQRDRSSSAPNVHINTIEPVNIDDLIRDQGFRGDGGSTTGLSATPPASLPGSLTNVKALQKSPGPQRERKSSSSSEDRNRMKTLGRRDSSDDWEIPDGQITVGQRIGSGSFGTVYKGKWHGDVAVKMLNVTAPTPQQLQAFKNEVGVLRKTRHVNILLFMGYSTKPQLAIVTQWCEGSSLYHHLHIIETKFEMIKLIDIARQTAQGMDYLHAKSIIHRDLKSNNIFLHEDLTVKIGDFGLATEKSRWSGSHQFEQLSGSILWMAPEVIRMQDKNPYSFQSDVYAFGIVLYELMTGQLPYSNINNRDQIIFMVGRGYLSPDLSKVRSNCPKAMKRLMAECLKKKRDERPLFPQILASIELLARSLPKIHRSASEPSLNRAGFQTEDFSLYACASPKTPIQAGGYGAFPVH

CNc1cnc2c(Oc3ccc(NC(=O)Nc4cc(C(F)(F)F)ccc4F)c(F)c3)ccnc2n1 [AA-055, 1-(2-fluoro-4-(3-(methylamino)pyrido[3,2-b]pyrazin-8-yloxy)phenyl)-3-(2-fluoro-5-(trifluoromethyl)phenyl)urea]
IC50 (B-RAF): < 1000 nM and 100 to 1000 nM
GI50 (WM266.4 melanoma cells): 1000 to 10000 nM

O=C(Nc1ccc(Cl)c(C(F)(F)F)c1)Nc1ccc(Oc2ccnc3ncc(=O)[nH]c23)c2ccccc12 [AA-037, 1-(4-chloro-3-(trifluoromethyl)phenyl)-3-(4-(1-oxo-1,2-dihydropyrido[2,3-b]pyrazin-8-yloxy)naphthalen-1-yl)urea]
IC50 (B-RAF): < 1000 nM and 100 to 1000 nM
GI50 (WM266.4 melanoma cells): < 10000 nM

O=C(Nc1ccc(Cl)c(C(F)(F)F)c1)Nc1ccc(Oc2ccnc3ncc(=O)[nH]c23)cc1F [AA-048, 1-(4-Chloro-3-(trifluoromethyl)phenyl)-3-(2-fluoro-4-(2-oxo-1,2-dihydropyrido[2,3-b]pyrazin-8-yloxy)phenyl)urea]
IC50 (B-RAF): < 100 nM

O=C(Nc1cccc(Oc2ccnc3[nH]c(=O)cnc23)c1)c1cccc(OC(F)(F)F)c1 [AA-002, N-(3-(3-oxo-3,4-dihydropyrido[2,3-b]pyrazin-8-yloxy)phenyl)-3-(trifluoro-methoxy)benzamide]
IC50 (B-RAF): < 100 nM

CSc1cc(Oc2ccnc3ncc(=O)[nH]c23)ccc1NC(=O)Nc1cc(C(F)(F)F)ccc1F [AA-046, 1-(2-fluoro-5-(trifluoromethyl)phenyl)-3-(2-(methylthio)-4-(2-oxo-1,2-dihydropyrido[2,3-b]pyrazin-8-yloxy)phenyl)urea]
IC50 (B-RAF): < 1000 nM and 100 to 1000 nM

O=C(Nc1ccc(Oc2ccnc3[nH]c(=O)cnc23)cc1F)Nc1cc(C(F)(F)F)ccc1F [AA-026, 1-(2-Fluoro-5-(trifluoromethyl)phenyl)-3-(2-fluoro-4-(3-oxo-3,4-dihydropyrido[2,3-b]pyrazin-8-yloxy)phenyl)urea]
IC50 (B-RAF): < 100 nM

O=C(Nc1ccc(Oc2ccnc3ncc(=O)[nH]c23)cc1)Nc1ccc(Cl)c(C(F)(F)F)c1 [AA-042, 1-(4-chloro-3-(trifluoromethyl)phenyl)-3-(4-(2-oxo-1,2-dihydropyrido[2,3-b]pyrazin-8-yloxy)phenyl)urea]
IC50 (B-RAF): < 1000 nM and 100 to 1000 nM

Cc1nc2nccc(Oc3ccc(NC(=O)Nc4cc(C(F)(F)F)ccc4F)c(F)c3)c2[nH]c1=O [AA-049, 1-(2-fluoro-4-(3-methyl-2-oxo-1,2-dihydropyrido[3,2-b]pyrazin-8-yloxy)phenyl)-3-(2-fluoro-5-(trifluoromethyl)phenyl)urea]
IC50 (B-RAF): < 1000 nM and 100 to 1000 nM

O=C(Nc1ccc(Oc2ccnc3[nH]c(=O)cnc23)cc1)Nc1ccc(Cl)c(C(F)(F)F)c1 [AA-020, 1-(4-chloro-3-(trifluoromethyl)phenyl)-3-(4-(3-oxo-3,4-dihydropyrido[2,3-b]pyrazin-8-yloxy)phenyl)urea]
IC50 (B-RAF): < 100 nM

Cc1nc2nccc(Oc3ccc(NC(=O)Nc4cc(C(C)(C)C)nn4-c4ccccc4)c(F)c3)c2[nH]c1=O [AA-041, 1-(3-Tert-butyl-1-phenyl-1H-pyrazol-5-yl)-3-(2-fluoro-4-(3-methyl-2-oxo-1,2-dihydropyrido[2,3-b]pyrazin-8-yloxy)phenyl)urea]
IC50 (B-RAF): 100 to 1000 nM

O=C(Nc1ccc(Cl)c(C(F)(F)F)c1)Nc1ccc(Oc2ccnc3[nH]c(=O)cnc23)cc1F [AA-025, 1-(4-Chloro-3-(trifluoromethyl)phenyl)-3-(2-fluoro-4-(3-oxo-3,4-dihydropyrido[2,3-b]pyrazin-8-yloxy)phenyl)urea]
IC50 (B-RAF): < 100 nM

CC(C)(C)c1cc(NC(=O)Nc2ccc(Oc3ccnc4ncc(=O)[nH]c34)c3ccccc23)n(-c2ccccc2)n1 [AA-034, 1-(3-tert-butyl-1-phenyl-1H-pyrazol-5-yl)-3-(4-(2-oxo-1,2-dihydropyrido[2,3-b]pyrazin-8-yloxy)naphthalen-1-yl)urea]
IC50 (B-RAF): < 1000 nM and 100 to 1000 nM

Cc1nc2c(Oc3cccc(NC(=O)c4cccc(OC(F)(F)F)c4)c3)ccnc2[nH]c1=O [AA-004]
IC50 (B-RAF): < 100 nM

Nc1nc2nccc(Oc3ccc(NC(=O)Nc4cc(C(F)(F)F)ccc4F)c(F)c3)c2[nH]c1=O [AA-022, 1-(4-(3-amino-2-oxo-1,2-dihydropyrido[2,3-b]pyrazin-8-yloxy)-2-fluorophenyl)-3-(2-fluoro-5-(trifluoromethyl)phenyl)urea]
IC50 (B-RAF): < 1000 nM and 100 to 1000 nM

Cc1ccc(-n2nc(C(C)(C)C)cc2NC(=O)Nc2ccc(Oc3ccnc4[nH]c(=O)c(C)nc34)c3ccccc23)cc1 [AA-011, 1-(3-tert-butyl-1-p-tolyl-1H-pyrazol-5-yl)-3-(4-(2-methyl-3-oxo-3,4-dihydropyrido[2,3-b]pyrazin-8-yloxy)naphthalen-1-yl)urea]
IC50 (B-RAF): < 100 nM

CC(C)(C)c1cccc(C(=O)Nc2cccc(Oc3ccnc4[nH]c(=O)cnc34)c2)c1 [AA-003, 3-tert-butyl-N-(3-(3-oxo-3,4-dihydropyrido[2,3-b]pyrazin-8-yloxy)phenyl)benzamide]
IC50 (B-RAF): < 100 nM

Cc1ccc(-n2nc(C(C)(C)C)cc2NC(=O)Nc2ccc(Oc3ccnc4[nH]c(=O)cnc34)c3ccccc23)cc1 [AA-010, 1-(3-tert-butyl-1-p-tolyl-1H-pyrazol-5-yl)-3-(4-(3-oxo-3,4-dihydropyrido[2,3-b]pyrazin-8-yloxy)naphthalen-1-yl)urea]
IC50 (B-RAF): < 100 nM

CC(C)(C)c1cc(NC(=O)Nc2ccc(Oc3ccnc4[nH]c(=O)cnc34)cc2F)n(-c2ccccc2)n1 [AA-019, 1-(3-tert-butyl-1-phenyl-1H-pyrazol-5-yl)-3-(2-fluoro-4-(3-oxo-3,4-dihydropyrido[3,2-b]pyrazin-8-yloxy)phenyl)urea]
IC50 (B-RAF): < 100 nM

Cc1ccc(-n2nc(C(C)(C)C)cc2NC(=O)Nc2ccc(Oc3ccnc4[nH]c(=O)cnc34)cc2F)cc1 [AA-018, 1-(3-tert-butyl-1-p-tolyl-1H-pyrazol-5-yl)-3-(2-fluoro-4-(3-oxo-3,4-dihydropyrido[3,2-b]pyrazin-8-yloxy)phenyl)urea]
IC50 (B-RAF): < 100 nM

CC(C)(C)c1cc(NC(=O)Nc2ccc(Oc3ccnc4[nH]c(=O)cnc34)c3ccccc23)n(-c2ccccc2)n1 [AA-008, 1-(3-tert-butyl-1-phenyl-1H-pyrazol-5-yl)-3-(4-(3-oxo-3,4-dihydropyrido[2,3-b]pyrazin-8-yloxy)naphthalen-1-yl)urea]
IC50 (B-RAF): < 100 nM

CSc1cc(Oc2ccnc3[nH]c(=O)c(=O)[nH]c23)ccc1NC(=O)Nc1ccc(Cl)c(C(F)(F)F)c1 [AA-051, 1-(4-chloro-3-(trifluoromethyl)phenyl)-3-(4-(2,3-dioxo-1,2,3,4-tetrahydropyrido[2,3-b]pyrazin-8-yloxy)-2-(methylthio)phenyl)urea]
IC50 (B-RAF): < 100 nM

CC(C)(C)c1cccc(C(=O)Nc2cccc(Oc3ccnc4ncc(=O)[nH]c34)c2)c1 [AA-029, 3-tert-butyl-N-(3-(2-oxo-1,2-dihydropyrido[2,3-b]pyrazin-8-yloxy)phenyl)benzamide]
IC50 (B-RAF): < 100 nM
